ChEMBL document CHEMBL1201862, “PubChem BioAssay data set” (2004)
Active and inactive are the calls of the source.

What was measured:
[1] = target: T1, DNA repair and recombination protein RAD54-like (Homo sapiens, UniProt Q92698); assay: inhibitors of human RAD54 branch migration, confirmation, biochemical, fluorescence, cherry-picked samples, dose series (AID 651657); assay type: functional
T1 sequence (Q92698 whole entry): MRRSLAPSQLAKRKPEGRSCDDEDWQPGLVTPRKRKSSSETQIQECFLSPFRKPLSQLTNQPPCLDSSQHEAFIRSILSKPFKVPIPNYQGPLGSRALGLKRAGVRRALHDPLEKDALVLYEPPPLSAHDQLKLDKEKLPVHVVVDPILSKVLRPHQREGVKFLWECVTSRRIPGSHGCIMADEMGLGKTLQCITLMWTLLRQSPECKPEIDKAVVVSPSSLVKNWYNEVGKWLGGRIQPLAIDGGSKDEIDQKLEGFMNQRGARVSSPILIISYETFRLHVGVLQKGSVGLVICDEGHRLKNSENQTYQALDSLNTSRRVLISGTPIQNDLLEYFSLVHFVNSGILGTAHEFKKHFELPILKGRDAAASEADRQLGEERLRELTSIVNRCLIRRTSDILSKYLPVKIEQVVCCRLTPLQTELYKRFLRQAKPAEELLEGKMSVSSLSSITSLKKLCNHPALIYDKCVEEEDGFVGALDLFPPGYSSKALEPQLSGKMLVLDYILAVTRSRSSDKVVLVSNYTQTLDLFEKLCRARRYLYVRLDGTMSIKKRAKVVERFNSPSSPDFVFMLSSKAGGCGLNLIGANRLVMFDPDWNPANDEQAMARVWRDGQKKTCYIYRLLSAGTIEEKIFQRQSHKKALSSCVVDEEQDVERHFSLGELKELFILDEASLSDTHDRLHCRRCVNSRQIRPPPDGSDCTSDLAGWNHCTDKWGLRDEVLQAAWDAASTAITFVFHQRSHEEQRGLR

[2] = target: Glucose-6-phosphate 1-dehydrogenase (Homo sapiens, UniProt P11413); assay: human G6PD enzyme inhibitors, dose response, selectivity assay for P. falciparum G6PD inhibitor project, biochemical, fluorescence (AID 504792); assay type: functional
[3] = target: Genome polyprotein (dengue virus type 2, UniProt P29990); assay: Dengue-2 NS5 methyltransferase inhibitors, primary screen, biochemical, confirmation dose response (AID 588689); assay type: functional
[4] = target: T2, Polyadenylate-binding protein 1 (Homo sapiens, UniProt P11940); assay: PABP1 MLLE–PAM2 interaction inhibitors, dose response, miRNA deadenylation inhibitor project, biochemical, fluorescence polarization, Cy5-PAM2 peptide, secondary (AID 602260); assay type: functional; details: read-out: IC50_Mean
[5] = target: T2, Polyadenylate-binding protein 1; assay: PABP1 MLLE–PAM2 binding inhibitor potency, dose response, biochemical, fluorescence polarization, FITC-PAM2 peptide (AID 602259); assay type: functional; details: read-out: IC50_Mean
[6] = target: Large T antigen (Simian virus 40, UniProt P03070); assay type: functional, Betapolyomavirus macacae;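 also: Confirmatory-stage PubChem screen for compounds that inhibit SV40 T antigen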
[7] = target: T3, Streptokinase A (Streptococcus pyogenes serotype M1, UniProt P10520); assay: S. pyogenes streptokinase expression inhibitors, potency, dose response, plasminogen activation absorbance, OD405 (AID 1914); assay type: functional, Streptococcus pyogenes M1 GAS;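 also: secreted streptokinase activity via plasminogen activation per viability signal from cell pellet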
T3 sequence (P10520 whole entry): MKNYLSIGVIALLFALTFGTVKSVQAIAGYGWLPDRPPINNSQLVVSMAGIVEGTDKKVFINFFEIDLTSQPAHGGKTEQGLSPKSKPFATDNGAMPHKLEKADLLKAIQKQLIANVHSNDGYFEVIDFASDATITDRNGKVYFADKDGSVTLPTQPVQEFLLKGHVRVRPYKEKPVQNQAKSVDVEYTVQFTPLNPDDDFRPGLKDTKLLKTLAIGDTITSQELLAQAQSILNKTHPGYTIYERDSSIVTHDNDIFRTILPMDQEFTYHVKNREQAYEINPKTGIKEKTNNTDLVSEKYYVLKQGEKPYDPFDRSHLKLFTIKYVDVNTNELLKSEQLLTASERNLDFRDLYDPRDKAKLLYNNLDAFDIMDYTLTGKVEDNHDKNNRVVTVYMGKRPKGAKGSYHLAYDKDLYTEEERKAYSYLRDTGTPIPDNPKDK

[8] = target: T4, Calpain-2 catalytic subunit (Sus scrofa, UniProt P43367); assay: pig calpain II inhibitor potency, dose response, biochemical, fluorogenic peptide substrate (AID 1420); assay type: functional
T4 sequence (P43367 whole entry): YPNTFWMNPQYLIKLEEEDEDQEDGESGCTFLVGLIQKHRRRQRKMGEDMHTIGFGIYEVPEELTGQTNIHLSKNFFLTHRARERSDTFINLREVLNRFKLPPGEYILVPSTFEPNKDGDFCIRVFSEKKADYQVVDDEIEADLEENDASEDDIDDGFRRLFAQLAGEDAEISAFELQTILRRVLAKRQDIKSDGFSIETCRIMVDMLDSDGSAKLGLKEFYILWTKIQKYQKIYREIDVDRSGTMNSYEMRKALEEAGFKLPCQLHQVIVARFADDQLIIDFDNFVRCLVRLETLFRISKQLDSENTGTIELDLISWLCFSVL

[9] = target: T5, Methionyl-tRNA synthetase, putative (Trypanosoma brucei brucei, UniProt Q38C91); assay type: functional, Trypanosoma brucei brucei strain 927/4 GUTat10.1
T5 sequence (Q38C91 whole entry): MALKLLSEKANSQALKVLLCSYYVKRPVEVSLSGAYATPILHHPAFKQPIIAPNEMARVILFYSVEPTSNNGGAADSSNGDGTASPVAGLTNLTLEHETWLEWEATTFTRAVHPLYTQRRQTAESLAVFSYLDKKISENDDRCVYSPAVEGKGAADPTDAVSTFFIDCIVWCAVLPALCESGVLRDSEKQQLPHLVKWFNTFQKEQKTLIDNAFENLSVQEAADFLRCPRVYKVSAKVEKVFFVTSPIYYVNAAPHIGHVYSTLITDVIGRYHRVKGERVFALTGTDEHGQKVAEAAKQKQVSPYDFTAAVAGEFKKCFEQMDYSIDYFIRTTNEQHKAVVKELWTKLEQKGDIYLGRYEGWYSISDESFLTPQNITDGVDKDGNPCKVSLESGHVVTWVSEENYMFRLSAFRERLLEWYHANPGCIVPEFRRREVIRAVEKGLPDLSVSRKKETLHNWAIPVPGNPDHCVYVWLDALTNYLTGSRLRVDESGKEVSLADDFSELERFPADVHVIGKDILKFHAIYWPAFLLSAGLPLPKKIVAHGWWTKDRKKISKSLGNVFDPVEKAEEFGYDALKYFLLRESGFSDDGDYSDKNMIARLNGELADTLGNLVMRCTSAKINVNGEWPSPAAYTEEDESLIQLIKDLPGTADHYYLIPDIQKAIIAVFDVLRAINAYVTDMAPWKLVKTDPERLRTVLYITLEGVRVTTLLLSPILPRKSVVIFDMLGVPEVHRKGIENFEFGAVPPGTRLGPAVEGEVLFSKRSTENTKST

[10] = target: T5, Methionyl-tRNA synthetase, putative; assay type: functional, Trypanosoma brucei brucei strain 927/4 GUTat10.1; remark: listed apart in the source
[11] = system: Streptococcus sp. 'group A'; assay: growth inhibition of control SK(-) GAS strain, dose response, counter-screen for streptokinase expression inhibitor project, luminescence, kanamycin, BacTiterGlo, confirmation (AID 1900); assay type: functional, organism-based
[12] = system: Streptococcus; assay: Group A Streptococcus viability loss, dose response, counter-screen for streptokinase expression inhibitor project, luminescence, BacTiterGlo (AID 1915); assay type: functional, organism-based;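 also: potency for reduction of bacterial viability or growth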
[13] = Luminescence Cell-Based Dose Retest to Confirm Inhibitors of Cancer Stem Cells. [Related pubchem assays (depositor defined):AID2717, AID2721]; assay type: functional; details: Homo sapiens
[14] = Counterscreen for inhibitors of Trypanosoma brucei methionyl tRNA synthetase (MetRS): Luminescence-based cell-based high throughput dose response assay to identify compounds that are cytotoxic to Jurkat human T lymphocyte cells.; assay type: functional
[15] = target: Mu-type opioid receptor (Homo sapiens, UniProt P35372); assay type: functional, cell-based;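 also: U2OS cells with beta-arrestin recruitment to OPRM1 by beta-gal complementation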
[16] = target: 5-hydroxytryptamine receptor 2A (Mus musculus, UniProt P35363); assay type: functional, cell-based;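 also: CHO-K1 cells with tagged receptor and beta-arrestin; agonist potency measured as compound-induced activation of the receptor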
[17] = target: T6, Sentrin-specific protease 8 (Homo sapiens, UniProt Q96LD8); assay type: functional
T6 sequence (Q96LD8 whole entry): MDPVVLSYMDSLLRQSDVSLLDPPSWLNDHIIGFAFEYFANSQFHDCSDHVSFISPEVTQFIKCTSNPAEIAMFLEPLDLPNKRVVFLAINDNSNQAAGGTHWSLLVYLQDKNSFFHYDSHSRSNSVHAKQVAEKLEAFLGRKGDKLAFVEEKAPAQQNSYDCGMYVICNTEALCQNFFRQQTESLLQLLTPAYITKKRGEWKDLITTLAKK

[18] = target: T6, Sentrin-specific protease 8; assay type: functional; remark: listed apart in the source
[19] = HEp-2 cell cytotoxicity, dose response, cytotoxicity control for RSV inhibitor project, HTS (AID 2410); assay type: functional; details: human respiratory syncytial virus
[20] = system: BJ; assay: cytotoxicity toward BJ-TERT fibroblasts, dose response, cell-based, RAS-independent, luminescence (AID 1933); assay type: functional; details: Homo sapiens
[21] = system: BJ; assay: cells; assay type: functional, cell-based; details: Homo sapiens
[22] = system: BJ; assay: cytotoxicity toward BJ-TERT-LT-ST fibroblasts, dose response, cell-based, RAS-independent, luminescence (AID 1935); assay type: functional; details: Homo sapiens;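 also: BJ fibroblasts immortalized with TERT plus LT and ST oncogenes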
[23] = cytotoxicity toward DRD oncogenic fibroblasts, dose response, cell-based, non-viral oncogenic, luminescence (AID 1934); assay type: functional; details: Homo sapiens
[24] = target: T7, Ubiquitin-conjugating enzyme E2 N (Homo sapiens, UniProt P61088); assay type: functional;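 also: Dose-response confirmation in a TR-FRET assay detecting UBC13-driven polyubiquitin chain formation, inhibition measured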
T7 sequence (P61088 whole entry): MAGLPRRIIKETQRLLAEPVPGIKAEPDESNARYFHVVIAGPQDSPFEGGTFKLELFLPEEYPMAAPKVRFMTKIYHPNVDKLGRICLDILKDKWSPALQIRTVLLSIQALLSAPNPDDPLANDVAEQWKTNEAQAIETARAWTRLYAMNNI

[25] = system: BJ; assay: cytotoxicity toward Ras-transformed BJeLR fibroblasts, dose response, cell-based, alamar blue fluorescence, cherrypicked samples (AID 2631); assay type: functional; details: Homo sapiens;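 also: confirmatory dose-response assay in RAS-dependent BJ fibroblasts engineered with TERT, LT and ST, with cytotoxicity read by fluorescence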
[26] = target: T8, DNA repair protein RAD52 homolog (Homo sapiens, UniProt P43351); assay type: functional, biochemical
T8 sequence (P43351 whole entry): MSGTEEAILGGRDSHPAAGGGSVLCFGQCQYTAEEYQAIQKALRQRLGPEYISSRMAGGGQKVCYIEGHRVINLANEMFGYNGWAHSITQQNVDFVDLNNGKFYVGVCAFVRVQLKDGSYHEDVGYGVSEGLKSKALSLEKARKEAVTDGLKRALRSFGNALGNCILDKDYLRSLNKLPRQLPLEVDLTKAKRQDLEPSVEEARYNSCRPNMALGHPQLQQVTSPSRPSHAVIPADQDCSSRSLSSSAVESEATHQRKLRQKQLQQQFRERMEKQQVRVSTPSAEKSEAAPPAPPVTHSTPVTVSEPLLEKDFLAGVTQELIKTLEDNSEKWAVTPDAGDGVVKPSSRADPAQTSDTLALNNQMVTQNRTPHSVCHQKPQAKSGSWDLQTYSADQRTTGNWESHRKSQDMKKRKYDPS

Mu-type opioid receptor, sequence (P35372 whole entry): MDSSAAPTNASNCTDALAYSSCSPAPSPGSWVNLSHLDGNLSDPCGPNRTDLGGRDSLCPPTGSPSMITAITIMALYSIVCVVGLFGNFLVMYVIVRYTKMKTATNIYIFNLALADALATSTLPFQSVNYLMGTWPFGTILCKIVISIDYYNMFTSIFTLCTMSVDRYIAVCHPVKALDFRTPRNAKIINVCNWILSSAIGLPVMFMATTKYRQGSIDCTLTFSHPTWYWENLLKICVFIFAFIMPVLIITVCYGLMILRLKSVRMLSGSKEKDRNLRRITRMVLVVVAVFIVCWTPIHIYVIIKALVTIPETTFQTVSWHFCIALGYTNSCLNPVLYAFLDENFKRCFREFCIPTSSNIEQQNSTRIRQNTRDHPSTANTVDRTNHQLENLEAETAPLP
5-hydroxytryptamine receptor 2A, sequence (P35363 whole entry): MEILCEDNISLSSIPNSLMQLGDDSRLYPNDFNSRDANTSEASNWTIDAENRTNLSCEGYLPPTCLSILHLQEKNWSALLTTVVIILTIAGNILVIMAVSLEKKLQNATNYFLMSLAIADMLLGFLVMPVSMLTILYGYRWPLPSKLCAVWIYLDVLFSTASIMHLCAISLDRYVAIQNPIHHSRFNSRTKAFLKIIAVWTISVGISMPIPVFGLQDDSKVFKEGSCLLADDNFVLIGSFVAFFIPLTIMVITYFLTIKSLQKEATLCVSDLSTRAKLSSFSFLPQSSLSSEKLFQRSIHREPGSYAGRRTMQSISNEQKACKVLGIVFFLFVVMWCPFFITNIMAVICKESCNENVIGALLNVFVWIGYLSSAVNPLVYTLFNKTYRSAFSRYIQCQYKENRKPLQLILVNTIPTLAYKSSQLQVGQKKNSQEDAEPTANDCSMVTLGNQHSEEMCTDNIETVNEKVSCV
Glucose-6-phosphate 1-dehydrogenase, sequence (P11413 whole entry): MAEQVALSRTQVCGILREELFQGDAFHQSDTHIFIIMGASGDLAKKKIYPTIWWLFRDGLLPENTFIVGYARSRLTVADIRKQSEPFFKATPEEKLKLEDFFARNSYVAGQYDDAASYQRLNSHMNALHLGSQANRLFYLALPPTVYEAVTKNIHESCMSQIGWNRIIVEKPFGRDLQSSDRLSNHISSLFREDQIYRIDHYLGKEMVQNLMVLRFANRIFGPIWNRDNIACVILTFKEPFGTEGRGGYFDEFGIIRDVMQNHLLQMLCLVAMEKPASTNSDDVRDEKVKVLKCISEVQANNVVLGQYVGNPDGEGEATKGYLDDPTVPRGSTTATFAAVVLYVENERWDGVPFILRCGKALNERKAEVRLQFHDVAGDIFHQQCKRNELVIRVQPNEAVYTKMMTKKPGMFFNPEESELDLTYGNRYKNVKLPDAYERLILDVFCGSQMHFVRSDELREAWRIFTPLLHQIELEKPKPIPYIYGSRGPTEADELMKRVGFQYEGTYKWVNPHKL
T2 sequence (P11940 whole entry): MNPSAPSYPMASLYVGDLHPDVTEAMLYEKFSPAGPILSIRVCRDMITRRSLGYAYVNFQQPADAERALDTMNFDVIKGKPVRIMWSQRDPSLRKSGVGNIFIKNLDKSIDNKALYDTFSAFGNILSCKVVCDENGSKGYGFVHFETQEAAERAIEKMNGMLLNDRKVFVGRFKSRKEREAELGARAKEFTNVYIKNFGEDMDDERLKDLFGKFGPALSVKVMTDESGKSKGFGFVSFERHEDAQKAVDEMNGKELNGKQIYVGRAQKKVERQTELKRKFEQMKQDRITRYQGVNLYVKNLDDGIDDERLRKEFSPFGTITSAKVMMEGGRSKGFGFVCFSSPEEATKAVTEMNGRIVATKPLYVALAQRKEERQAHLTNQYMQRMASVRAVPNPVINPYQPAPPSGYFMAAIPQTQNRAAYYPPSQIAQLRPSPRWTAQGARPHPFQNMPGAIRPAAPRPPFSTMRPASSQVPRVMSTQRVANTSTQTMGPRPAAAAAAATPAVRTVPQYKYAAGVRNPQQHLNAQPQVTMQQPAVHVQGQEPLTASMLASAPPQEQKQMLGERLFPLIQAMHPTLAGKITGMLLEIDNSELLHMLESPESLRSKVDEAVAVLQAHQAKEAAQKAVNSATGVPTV
Genome polyprotein, sequence (P29990 2492-3391 limits assumed): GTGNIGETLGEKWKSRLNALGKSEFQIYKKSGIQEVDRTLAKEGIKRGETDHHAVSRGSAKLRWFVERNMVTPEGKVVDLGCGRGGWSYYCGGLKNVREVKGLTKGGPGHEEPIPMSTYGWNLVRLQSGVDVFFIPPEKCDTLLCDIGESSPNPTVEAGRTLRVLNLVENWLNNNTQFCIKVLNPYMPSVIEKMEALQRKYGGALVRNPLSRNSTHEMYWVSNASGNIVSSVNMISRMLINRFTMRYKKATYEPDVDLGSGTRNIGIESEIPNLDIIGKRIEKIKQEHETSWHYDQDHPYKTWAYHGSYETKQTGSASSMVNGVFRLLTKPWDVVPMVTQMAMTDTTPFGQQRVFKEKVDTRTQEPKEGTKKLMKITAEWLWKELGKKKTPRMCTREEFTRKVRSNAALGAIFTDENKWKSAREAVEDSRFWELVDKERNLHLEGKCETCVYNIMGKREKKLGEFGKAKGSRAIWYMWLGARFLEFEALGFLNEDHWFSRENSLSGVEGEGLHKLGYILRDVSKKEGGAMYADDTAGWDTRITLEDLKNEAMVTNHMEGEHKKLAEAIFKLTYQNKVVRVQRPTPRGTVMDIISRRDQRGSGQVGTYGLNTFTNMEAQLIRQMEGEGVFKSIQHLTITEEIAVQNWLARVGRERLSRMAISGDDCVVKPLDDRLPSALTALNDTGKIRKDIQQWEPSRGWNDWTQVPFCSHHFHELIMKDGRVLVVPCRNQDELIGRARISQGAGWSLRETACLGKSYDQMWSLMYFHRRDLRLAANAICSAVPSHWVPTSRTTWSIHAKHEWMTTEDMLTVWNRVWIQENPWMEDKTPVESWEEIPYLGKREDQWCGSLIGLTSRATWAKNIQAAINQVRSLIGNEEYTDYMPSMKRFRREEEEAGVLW
Large T antigen, sequence (P03070 whole entry): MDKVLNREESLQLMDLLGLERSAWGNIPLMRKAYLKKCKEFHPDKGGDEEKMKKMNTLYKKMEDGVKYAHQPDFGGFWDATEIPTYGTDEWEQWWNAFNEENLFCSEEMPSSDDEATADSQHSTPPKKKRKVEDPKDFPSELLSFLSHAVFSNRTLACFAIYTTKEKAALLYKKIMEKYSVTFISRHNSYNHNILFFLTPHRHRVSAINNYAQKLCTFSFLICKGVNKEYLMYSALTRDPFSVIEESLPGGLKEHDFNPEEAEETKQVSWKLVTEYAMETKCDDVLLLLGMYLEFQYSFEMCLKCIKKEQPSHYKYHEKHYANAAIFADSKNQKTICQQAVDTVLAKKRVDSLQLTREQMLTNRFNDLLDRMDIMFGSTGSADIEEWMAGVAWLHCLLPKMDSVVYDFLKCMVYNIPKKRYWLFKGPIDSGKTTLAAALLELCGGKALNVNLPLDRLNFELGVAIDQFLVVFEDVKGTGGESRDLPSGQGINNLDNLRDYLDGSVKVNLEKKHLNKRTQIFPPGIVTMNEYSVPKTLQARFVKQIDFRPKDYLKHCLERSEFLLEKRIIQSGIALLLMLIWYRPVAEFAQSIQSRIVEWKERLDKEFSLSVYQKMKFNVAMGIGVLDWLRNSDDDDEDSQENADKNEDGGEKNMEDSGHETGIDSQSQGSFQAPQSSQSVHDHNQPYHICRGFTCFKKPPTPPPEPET

## CCOC(=O)Nc1c2ccccc2nc2ccccc12
[1]
  AC50: 54.8 µM (active)

## Oc1cc(-n2cccn2)c(O)cc1-n1cccn1
[2]
  IC50: 33 µM (inactive)
[3]
  IC50: 79.2 µM (active)
[4]
  IC50: > 66 µM (inactive)
[5]
  IC50: > 66 µM (inactive)

## COc1ccc(N2CSC3=C(C#N)C(c4ccc(OC)c(OC)c4)CC(=O)N3C2)c(OC)c1 (centres undefined)
[6]
  IC50: 52.7 µM (active)
[2]
  IC50: > 80 µM (inactive)

## CC(CNC(=S)Nc1cc(F)cc(F)c1)CSc1ccc(Cl)cc1 (centres undefined)
[7]
  EC50: 30 µM (active)
[8]
  IC50: 13.5 µM (not active)
[9]
  IC50: 15.4 µM (inactive)
[10]
  IC50: 23.9 µM (inactive)

## CC(CNC(S)=Nc1cc(F)cc(F)c1)CSc1ccc(Cl)cc1 (centres undefined)
[11]
  EC50: 8.3 µM (active)
[12]
  EC50: 36 µM (active)
[13]
  AC50: 6.24 µM (active)
[14]
  IC50: 27.8 µM (inactive)

## COc1ccc(NC(=O)CSc2ccc(-c3ccccn3)nn2)cc1OC
[15]
  EC50: 92.4 µM (inactive)
[16]
  EC50: 0.589 µM (active)

## CCS(=O)(=O)N1CCC(C(=O)N2CCc3ccccc3C2)CC1
[17]
  IC50: > 100 µM (inactive)
[18]
  IC50: 8.89 µM (active)

## O=C(Nc1ccc(C(=O)O)cc1)/C(=C\C=C\c1ccccc1)NC(=O)c1cccc(Br)c1
[19]
  CC50: 33.7 µM (active)
[9]
  IC50: 60.7 µM (inactive)
[14]
  IC50: 83.3 µM (inactive)
[10]
  IC50: 45.6 µM (inactive)

## O=C(CCCCCN1C(=O)c2cccc3cccc(c23)C1=O)NCc1cccnc1
[20]
  EC50: > 150 µM (not active)
[21]
  EC50: 3.59 µM (inconclusive)
[22]
  EC50: > 150 µM (inconclusive)
[23]
  EC50: > 150 µM (not active)
[24]
  IC50: > 20 µM (inactive)
[25]
  EC50: > 66.7 µM (inactive)

## CCN1CCN(c2cc(C)c3cc(NC(S)=NCCCN4CCc5ccccc5C4)ccc3n2)CC1
[1]
  AC50: 20.6 µM (active)
[26]
  AC50: 3 µM (active)

## Fc1ccccc1CN1CCN(c2ncccn2)CC1
[15]
  EC50: 92.5 µM (inactive)
[16]
  EC50: 1.26 µM (active)

## COc1ccc(OC)c(Nc2nc(NCCCN(C)C)nc(N)c2[N+](=O)[O-])c1
[1]
  AC50: 20.2 µM (active)
[26]
  AC50: 7.02 µM (active)

## COc1ccc(CC2(CO)CCN(C(C)COc3ccccc3)CC2)cc1 (centres undefined)
[15]
  EC50: 92.4 µM (inactive)
[16]
  EC50: 0.115 µM (active)

## O=C(CN1C(=O)CSC1=O)N1CCc2ccccc2C1
[17]
  IC50: 80.8 µM (inactive)
[18]
  IC50: 10.6 µM (active)

## O=c1c(Cc2ccc(Cl)cc2Cl)c(O)ccn1Cc1ccncc1
[9]
  IC50: 29.2 µM (inactive)
[14]
  IC50: 83.2 µM (inactive)
[10]
  IC50: 20 µM (inactive)

## Cc1cnc(C(=O)Nc2c(-c3ccccc3)[nH][nH]c2=O)cn1
[17]
  IC50: 20.3 µM (active)
[18]
  IC50: 30.3 µM (active)
